This assay has as its target T1, Androgen Receptor (AR) protein (Homo sapiens, UniProt P10275, T878A).
T1 construct: endogenous in cells; host or cells: LNCaP
Kind of assay: Androgen Receptor (AR) protein degradation assay in LNCaP cells, western blotting. The following applies: 20 h; for inhibition at 0.01 µM: 0.01 μM compound; for inhibition at 0.1 µM: 0.1 μM compound; for inhibition at 1 µM: 1 μM compound; for inhibition at 10 µM: 10 μM compound. It is filed as cell-based. In short, it runs like this: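 LNCaP prostate cancer cells were cultured 3 days, then treated with compound for 20 h. Lysates in 1% SDS buffer were normalised by BCA, and 8 μg protein was run on 4–12% Bis-Tris gels. AR was immunoblotted with chemiluminescence, using GAPDH/β-actin as loading controls.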
(Immunoblotting shows a protein as a band on a membrane.)

Usually inhibition stands for the change of the read-out against control, counted positive when it falls.

T1 sequence (P10275 whole entry T878A): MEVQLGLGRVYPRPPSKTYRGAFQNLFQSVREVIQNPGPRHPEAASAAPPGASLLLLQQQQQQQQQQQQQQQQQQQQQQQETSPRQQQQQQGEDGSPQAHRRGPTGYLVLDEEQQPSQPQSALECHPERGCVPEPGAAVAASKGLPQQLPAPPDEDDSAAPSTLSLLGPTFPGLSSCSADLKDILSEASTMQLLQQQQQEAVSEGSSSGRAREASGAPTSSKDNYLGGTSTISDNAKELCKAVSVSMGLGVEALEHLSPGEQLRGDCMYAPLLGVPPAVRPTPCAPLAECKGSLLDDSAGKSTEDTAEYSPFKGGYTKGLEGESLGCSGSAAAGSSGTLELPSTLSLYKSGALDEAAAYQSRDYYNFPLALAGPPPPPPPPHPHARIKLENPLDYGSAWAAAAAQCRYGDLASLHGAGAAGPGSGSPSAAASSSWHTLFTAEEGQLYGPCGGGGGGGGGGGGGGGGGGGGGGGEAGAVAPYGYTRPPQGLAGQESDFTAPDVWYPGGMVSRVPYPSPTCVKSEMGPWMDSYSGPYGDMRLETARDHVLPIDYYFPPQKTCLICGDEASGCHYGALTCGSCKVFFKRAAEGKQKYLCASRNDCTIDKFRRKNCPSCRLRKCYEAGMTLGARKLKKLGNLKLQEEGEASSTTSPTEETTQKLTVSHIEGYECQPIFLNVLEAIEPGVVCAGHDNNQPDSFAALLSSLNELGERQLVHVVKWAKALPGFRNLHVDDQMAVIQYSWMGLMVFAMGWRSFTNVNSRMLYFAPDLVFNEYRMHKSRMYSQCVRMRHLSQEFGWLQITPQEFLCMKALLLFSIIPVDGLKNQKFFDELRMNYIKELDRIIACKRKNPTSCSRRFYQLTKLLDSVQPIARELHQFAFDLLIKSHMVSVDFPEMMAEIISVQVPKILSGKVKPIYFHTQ
T1 sequence (Q96SW2 whole entry partner): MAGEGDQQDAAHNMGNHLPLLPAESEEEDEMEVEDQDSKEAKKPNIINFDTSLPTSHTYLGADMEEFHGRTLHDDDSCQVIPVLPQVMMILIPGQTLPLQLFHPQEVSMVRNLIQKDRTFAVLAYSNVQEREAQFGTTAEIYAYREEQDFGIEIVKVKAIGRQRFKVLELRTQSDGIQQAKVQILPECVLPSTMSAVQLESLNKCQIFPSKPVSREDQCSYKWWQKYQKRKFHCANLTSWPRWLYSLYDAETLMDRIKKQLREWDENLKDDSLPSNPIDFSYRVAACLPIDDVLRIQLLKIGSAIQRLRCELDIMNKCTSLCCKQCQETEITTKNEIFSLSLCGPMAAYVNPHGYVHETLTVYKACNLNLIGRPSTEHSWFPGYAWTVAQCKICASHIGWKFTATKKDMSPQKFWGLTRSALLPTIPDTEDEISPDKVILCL

`N#Cc1ccc(N2CCC(C(=O)Nc3ccc(N4CCC(CN5CC6(CCN(c7ccc8c(=O)n(C9CCC(=O)NC9=O)nnc8c7)CC6)C5)CC4)cn3)CC2)cc1C(F)(F)F` (centres unmarked) [Example 52, 1-(4-cyano-3-(trifluoromethyl)phenyl)-N-(5-(4-((7-(3-(2,6-dioxopiperidin-3-yl)-4-oxo-3,4-dihydrobenzo[d][1,2,3]triazin-7-yl)-2,7-diazaspiro[3.5]nonan-2-yl)methyl)piperidin-1-yl)pyridin-2-yl)piperidine-4-carboxamide]: the inhibition at 0.01 µM came out at 50%, the inhibition at 0.1 µM turned out to be 91% and the inhibition at 1 µM was found to be 97%.
The corresponding values for `N#Cc1ccc(N2CCC(C(=O)Nc3ccc(OCCN4CCC(Oc5ccc6c(c5)C(=O)N(C5CCC(=O)NC5=O)C6=O)CC4)cn3)CC2)cc1C(F)(F)F` (centres unmarked) [Example 178, 1-(4-cyano-3-(trifluoromethyl)phenyl)-N-(5-(2-(4-((2-(2,6-dioxopiperidin-3-yl)-1,3-dioxoisoindolin-5-yl)oxy)piperidin-1-yl)ethoxy)pyridin-2-yl)piperidine-4-carboxamide] are 23%, 64% and 87%.
The corresponding values for `N#Cc1ncc(N2CCC(F)(C(=O)Nc3ccc(N4CCC(CN5CCN(CC6CCN(c7ccc8c(c7)C(=O)N(C7CCC(=O)NC7=O)C8=O)CC6)CC5)CC4)cn3)CC2)cc1C(F)(F)F` (centres unmarked) [Example 10, 1-(6-cyano-5-(trifluoromethyl)pyridin-3-yl)-N-(5-(4-((4-((1-(2-(2,6-dioxopiperidin-3-yl)-1,3-dioxoisoindolin-5-yl)piperidin-4-yl)methyl)piperazin-1-yl)methyl)piperidin-1-yl)pyridin-2-yl)-4-fluoropiperidine-4-carboxamide] are 9%, 52% and 74%.
Taken in the same sequence, the figures for `N#Cc1ccc(N2CCC(C(=O)Nc3ccc(N4CCC(CCN5CC6(CCN(c7ccc8c(c7)C(=O)N(C7CCC(=O)NC7=O)C8=O)CC6)C5)CC4)cn3)CC2)cc1C(F)(F)F` (centres unmarked) [Example 94, 1-(4-cyano-3-(trifluoromethyl)phenyl)-N-(5-(4-(2-(7-(2-(2,6-dioxopiperidin-3-yl)-1,3-dioxoisoindolin-5-yl)-2,7-diazaspiro[3.5]nonan-2-yl)ethyl)piperidin-1-yl)pyridin-2-yl)piperidine-4-carboxamide] were 75%, 98% and 98%.
In the case of `N#Cc1ccc(N2CCC(C(=O)Nc3ncc(N4CCC(CN5CCN(C[C@H]6CCN(c7cc8c(cc7F)C(=O)N(C7CCC(=O)NC7=O)C8=O)C6)CC5)CC4)cn3)CC2)cc1C(F)(F)F` (stereo partly drawn) [Example 160, 1-(4-cyano-3-(trifluoromethyl)phenyl)-N-(5-(4-((4-(((3R)-1-(2-(2,6-dioxopiperidin-3-yl)-6-fluoro-1,3-dioxoisoindolin-5-yl)pyrrolidin-3-yl)methyl)piperazin-1-yl)methyl)piperidin-1-yl)pyrimidin-2-yl)piperidine-4-carboxamide], the inhibition at 0.01 µM was -19%, the inhibition at 0.1 µM amounted to 4% and the inhibition at 1 µM came to 71%.
Taken in the same sequence, the figures for `CC1(CN2CCC(Oc3ccc(NC(=O)C4CCN(c5ccc(C#N)c(C(F)(F)F)c5)CC4)nc3)CC2)CN(c2ccc3c(c2)C(=O)N(C2CCC(=O)NC2=O)C3=O)C1` (centres unmarked) [Example 172, 1-(4-cyano-3-(trifluoromethyl)phenyl)-N-(5-((1-((1-(2-(2,6-dioxopiperidin-3-yl)-1,3-dioxoisoindolin-5-yl)-3-methylazetidin-3-yl)methyl)piperidin-4-yl)oxy)pyridin-2-yl)piperidine-4-carboxamide] were 56%, 91% and 91%.
Consider `N#Cc1ccc(N2CCC(C(=O)Nc3ccc(N4CCN(CCC5CCN(c6ccc7c(c6)C(=O)N(C6CCC(=O)NC6=O)C7=O)CC5)CC4)cn3)CC2)cc1C(F)(F)F` (centres unmarked) [Example 119, 1-(4-cyano-3-(trifluoromethyl)phenyl)-N-(5-(4-(2-(1-(2-(2,6-dioxopiperidin-3-yl)-1,3-dioxoisoindolin-5-yl)piperidin-4-yl)ethyl)piperazin-1-yl)pyridin-2-yl)piperidine-4-carboxamide], for which the inhibition at 0.01 µM amounted to 21%, the inhibition at 0.1 µM worked out at 90% and the inhibition at 1 µM was 26%.
Taken in the same sequence, the figures for `N#Cc1ccc(N2CCC(C(=O)Nc3ccc(N4CC(CN5CCC(COc6ccc7c(c6)C(=O)N(C6CCC(=O)NC6=O)C7=O)CC5)C4)cn3)CC2)cc1C(F)(F)F` (centres unmarked) [Example 149, 1-(4-cyano-3-(trifluoromethyl)phenyl)-N-(5-(3-((4-(((2-(2,6-dioxopiperidin-3-yl)-1,3-dioxoisoindolin-5-yl)oxy)methyl)piperidin-1-yl)methyl)azetidin-1-yl)pyridin-2-yl)piperidine-4-carboxamide] were 56%, 97% and 97%.
The corresponding values for `N#Cc1ncc(N2CCC(C(=O)Nc3ccc(N4CCC(CN5CC6(CCN(c7ccc8c(c7)C(=O)N(C7CCC(=O)NC7=O)C8=O)CC6)C5)CC4)cn3)CC2)cc1C(F)(F)F` (centres unmarked) [Example 57, 1-(6-cyano-5-(trifluoromethyl)pyridin-3-yl)-N-(5-(4-((7-(2-(2,6-dioxopiperidin-3-yl)-1,3-dioxoisoindolin-5-yl)-2,7-diazaspiro[3.5]nonan-2-yl)methyl)piperidin-1-yl)pyridin-2-yl)piperidine-4-carboxamide] are 43%, 85% and 96%.
The corresponding values for `N#Cc1ccc(N2CCC(C(=O)Nc3ccc(OCCN4CCN(CC(=O)Nc5cccc(NC6CCC(=O)NC6=O)c5)CC4)cn3)CC2)cc1C(F)(F)F` (centres unmarked) [Example 176, 1-(4-cyano-3-(trifluoromethyl)phenyl)-N-(5-(2-(4-(2-((3-((2,6-dioxopiperidin-3-yl)amino)phenyl)amino)-2-oxoethyl)piperazin-1-yl)ethoxy)pyridin-2-yl)piperidine-4-carboxamide] are -2%, -22% and 16%.
With `N#Cc1ccc(N2CCC(F)(C(=O)Nc3ccc(N4CCC(CN5CC6(CCN(c7ccc8c(c7)CN(C7CCC(=O)NC7=O)C8=O)CC6)C5)CC4)cn3)CC2)cc1C(F)(F)F` (centres unmarked) [Example 136, 1-(4-cyano-3-(trifluoromethyl)phenyl)-N-(5-(4-((7-(2-(2,6-dioxopiperidin-3-yl)-1-oxoisoindolin-5-yl)-2,7-diazaspiro[3.5]nonan-2-yl)methyl)piperidin-1-yl)pyridin-2-yl)-4-fluoropiperidine-4-carboxamide], the inhibition at 0.01 µM turned out to be 38%, the inhibition at 0.1 µM came to 92% and the inhibition at 1 µM stood at 91%.
With `N#Cc1ccc(N2CCC(C(=O)Nc3ccc(C#CC4CCN(CC5CCN(c6ccc7c(c6)C(=O)N(C6CCC(=O)NC6=O)C7=O)CC5)CC4)cn3)CC2)cc1C(F)(F)F` (centres unmarked) [Example 131, 1-(4-cyano-3-(trifluoromethyl)phenyl)-N-(5-((1-((1-(2-(2,6-dioxopiperidin-3-yl)-1,3-dioxoisoindolin-5-yl)piperidin-4-yl)methyl)piperidin-4-yl)ethynyl)pyridin-2-yl)piperidine-4-carboxamide], the inhibition at 0.01 µM is 28%, the inhibition at 0.1 µM was determined as 66%, the inhibition at 1 µM came to 82% and the inhibition at 10 µM was determined as 87%.
With `N#Cc1ccc(N2CCC(C(=O)Nc3ccc(N4CC5(CCN(CC6CCN(c7ccc8c(c7)C(=O)N(C7CCC(=O)NC7=O)C8=O)CC6)CC5)C4)cn3)CC2)cc1Cl` (centres unmarked) [Example 122, 1-(3-chloro-4-cyanophenyl)-N-(5-(7-((1-(2-(2,6-dioxopiperidin-3-yl)-1,3-dioxoisoindolin-5-yl)piperidin-4-yl)methyl)-2,7-diazaspiro[3.5]nonan-2-yl)pyridin-2-yl)piperidine-4-carboxamide], the inhibition at 0.01 µM worked out at 71%, the inhibition at 0.1 µM is 76% and the inhibition at 1 µM came out at 74%.
For the compound `N#Cc1ccc(N2CCC(C(=O)Nc3ccc(OC4CCN(CC5CN(c6ccc7c(c6)C(=O)N(C6CCC(=O)NC6=O)C7=O)C5)CC4)cn3)CC2)cc1C(F)(F)F` (centres unmarked) [Example 171, 1-(4-cyano-3-(trifluoromethyl)phenyl)-N-(5-((1-((1-(2-(2,6-dioxopiperidin-3-yl)-1,3-dioxoisoindolin-5-yl)azetidin-3-yl)methyl)piperidin-4-yl)oxy)pyridin-2-yl)piperidine-4-carboxamide], the inhibition at 0.01 µM was 69%, the inhibition at 0.1 µM was 93% and the inhibition at 1 µM worked out at 95%.
Turning to `N#Cc1ccc(N2CCC(C(=O)Nc3ccc(N4CCC(CN5CCC6(CC5)CCN(c5ccc7c(c5)C(=O)N(C5CCC(=O)NC5=O)C7=O)CC6)CC4)cn3)CC2)cc1Cl` (centres unmarked) [Example 69, 1-(3-chloro-4-cyanophenyl)-N-(5-(4-((9-(2-(2,6-dioxopiperidin-3-yl)-1,3-dioxoisoindolin-5-yl)-3,9-diazaspiro[5.5]undecan-3-yl)methyl)piperidin-1-yl)pyridin-2-yl)piperidine-4-carboxamide], the inhibition at 0.01 µM came to 40%, the inhibition at 0.1 µM came to 83%, the inhibition at 1 µM was determined as 85% and the inhibition at 10 µM was determined as 82%.
On to `N#Cc1ccc(N2CCC(C(=O)Nc3ccc(N4CCC(CCN5CCN(c6ccc7c(c6)C(=O)N(C6CCC(=O)NC6=O)C7=O)CC5)CC4)cn3)CC2)cc1Cl` (centres unmarked) [Example 87, 1-(3-chloro-4-cyanophenyl)-N-(5-(4-(2-(4-(2-(2,6-dioxopiperidin-3-yl)-1,3-dioxoisoindolin-5-yl)piperazin-1-yl)ethyl)piperidin-1-yl)pyridin-2-yl)piperidine-4-carboxamide], for which the inhibition at 0.01 µM was determined as 30%, the inhibition at 0.1 µM was 88% and the inhibition at 1 µM was 90%.

These data come from US12122763B2, “Substituted piperidines for androgen receptor degradation” (UBIX THERAPEUTICS, INC., priority 2020, dated 2024).
